These results are taken from patent US5665724A, “Substituted pyrimidinylaminothiazole derivatives useful as platelet aggregation inhibitors” (Ortho Pharmaceutical Corporation, priority 1995, dated 1997).

The test system of experiment [1] is platelets (platelet aggregation). The experiment in a line: Platelet aggregation inhibition (gel-filtered platelets, thrombin or ADP agonist, aggregometer). It is filed as cell-based. The settings on record: 37° C.; for inhibition at 50 µM: Platelet, 50 μM compound, three minutes; for IC50: % Inhibition Platelet Aggregation @ 50 μM, read-out: Platelet Aggregation, concentration given in lieu of a percentage (IC50). As to the method:
The percentage of platelet aggregation is calculated as an increase in light transmission of drug treated platelet concentrate vs control treated platelet concentrate. Blood is obtained from drug free, normal donors and placed into tubes containing 0.13M sodium citrate (two sources are routinely used: platelet concentrate obtained from Biological Specialty Corp., Lansdale, Pa. or whole blood obtained from donors). Platelet rich plasma (PRP) is collected by centrifugation of the concentrate or whole blood at 130×g for 15 minutes at 25° C. The PRP (5 mL) is gel filtered through Sepharose 2B (bed volume 50 mL), and the platelet count is adjusted to 2×10^7 platelets per sample. The following constituents are added to a siliconized cuvette: 250 μL of the concentrated platelet filtrate, 100 μL of Tyrode's buffer (0.14M NaCl, 0.0027M KCl, 0.012M NaHCO3, 0.76 mM Na2 HPO4, 0.0055M glucose and 2 mg/mL BSA pH 7.4), 50 μL of 2 mM calcium and test drug […]. Aggregation is monitored in a dual channel Chrono-log Aggregometer for three minutes following the addition of agonist (thrombin 50 μL of 1 unit/mL, or ADP 50 μL of 100 μM). The final assay volume is 500 μL. The reaction takes place at 37° C. The peak aggregation response is calculated as the increase in light transmission units over a three minute period. The difference of the increase in light transmission between control and drug treated platelets is then expressed as a percent of the nondrug treated controls.

Experiment [2] deals with fibrinogen binding to activated platelets. Briefly: 125I-Fibrinogen binding to activated platelets. The settings on record: thrombin-activated platelets, 125I-fibrinogen 0.15 μM; for % Inhibition Fibrinogen Binding @ 30 μM: 30 μM compound, 10 minutes, room temperature; for IC50: printed in column % Inhibition Fibrinogen Binding @ 30 μM, read-out: Fibrinogen Binding, IC50 (concentration given in lieu of a percentage). The protocol:
The compounds of the invention as identified above are evaluated for platelet aggregation inhibition activity as indicated by the percentage of non-aggregated platelets which are available for binding in accordance with the following procedure.
^125 I-Fibrinogen binding to activated platelets is a modification of the procedure described by Bennett et al., 1988. Briefly, 40 mL of PRP (obtained from Biological Specialty Corp., Lansdale, Pa.) are centrifuged at 120×g to remove contaminating red cells. Aspirin (50 μM) is added and the PRP is incubated at 37° C. for 20 minutes. The pH of the PRP is adjusted to 6.5 with 3.8% sodium citrate and 0.9 μM of PGE1 is added. Platelets are concentrated by a 300×g centrifugation (10 minutes) and the pellet is resuspended in 4 mL. of Tyrode's buffer. The platelet suspension (4 mL) is gel-filtered through a Sepharose-2B column (50 mL bed volume). The platelet count is adjusted to 1×10^8 platelets per 200 mL. The binding reaction is performed in polystyrene tubes (final volume […]). Reagents are added in the following order: 80 mL of Tyrode's buffer, 50 mL of CaCl2 (final concentration (f.c.) […]) and 50 mL of thrombin (f.c. 0.1 unit/mL). The platelet suspension is then added and the mixture is allowed to incubate at room temperature for 2 minutes. Hirudin (50 mL, f.c. 0.5 unit/mL) is immediately added to prevent the catalytic activity of thrombin. Various concentrations of the compound to be tested […] with the competing radioligand ^125 I-fibrinogen (f.c. of 0.15 μM) are added. The mixture is incubated for 10 minutes at room temperature. To terminate the binding reaction the platelets are sedimented (10,000×g for 3 minutes) through silicone oil (3:1 hi-phenol 550/methyl silicone 200, W. F. Nye, Inc., New Bedford, Mass.), in an Eppendorf centrifuge.
The tips of the centrifuge tubes containing the pelleted platelets are cut off and counted for ^125 I-fibrinogen associated with the stimulated platelets. The amount of platelet radioactivity measured in the presence of nonlabeled fibrinogen (4 mg/mL) is considered the nonspecific binding. All samples are repeated in triplicate.
Data are expressed as a percent at concentrations of 30 μM of specifically bound ^125 I-fibrinogen to the platelets in Table 6 below. Positive percentages of fibrinogen binding indicates higher activity for inhibiting platelet aggregation since only non-aggregated or free platelets are available for fibrinogen binding. Alternatively, a concentration is provided in lieu of a percentage to indicate the IC50 of concentration of compound which provides 50% fibrinogen binding.

`CCN(CC)CCCNC(=O)c1cnc(Nc2nc(-c3ccc(C)cc3)cs2)nc1C(F)(F)F` [Cmpd 2] had an inhibition at 50 µM in experiment [1] of 75%. Moreover, the “% Inhibition Fibrinogen Binding @ 30 μM” value in experiment [2] came out at 12%.

`O=C(NCCCn1ccnc1)c1cnc(Nc2nc(-c3cccc(C(F)(F)F)c3)cs2)nc1C(F)(F)F` [Cmpd 3] registered an inhibition at 50 µM in experiment [1] of 55%. Moreover, the “% Inhibition Fibrinogen Binding @ 30 μM” value in experiment [2] is 4%.

On to `NCCCNC(=O)c1cnc(Nc2nc(-c3cccc(C(F)(F)F)c3)cs2)nc1C(F)(F)F` [Cmpd 4], for which, in experiment [1], the IC50 turned out to be 10 µM. Moreover, the “% Inhibition Fibrinogen Binding @ 30 μM” value in experiment [2] worked out at 50%.

Compound `COc1ccc(-c2csc(Nc3ncc(C(=O)NCCCN(C)C)c(C(F)(F)F)n3)n2)cc1` [Cmpd 5] had an inhibition at 50 µM in experiment [1] of 96%. Moreover, the “% Inhibition Fibrinogen Binding @ 30 μM” value in experiment [2] was 47%.

On to `O=C(NCCCNC1CCCCC1)c1cnc(Nc2nc(-c3cccc(C(F)(F)F)c3)cs2)nc1C(F)(F)F` [Cmpd 6], for which the figures for the IC50 in experiment [1] and in experiment [2] were 15 µM and 30 µM, respectively.

In turn, `O=C(NCCCN1CCCCCC1)c1cnc(Nc2nc(-c3cccc(C(F)(F)F)c3)cs2)nc1C(F)(F)F` [Cmpd 7] yielded an inhibition at 50 µM in experiment [1] of 95%. In addition, the “% Inhibition Fibrinogen Binding @ 30 μM” value in experiment [2] was 14%.

In turn, `O=C(NCCCNC1CCCC1)c1cnc(Nc2nc(-c3cccc(C(F)(F)F)c3)cs2)nc1C(F)(F)F` [Cmpd 8] yielded an inhibition at 50 µM in experiment [1] of 85%. Also, the “% Inhibition Fibrinogen Binding @ 30 μM” value in experiment [2] is 50%.

Regarding `CCCCNCCCNC(=O)c1cnc(Nc2nc(-c3cccc(C(F)(F)F)c3)cs2)nc1C(F)(F)F` [Cmpd 9], in experiment [1], the inhibition at 50 µM came out at 96%. Besides, the IC50 in experiment [2] is 3.4 µM.

Take `O=C(NCCCNC1CCCCC1)c1cnc(Nc2nc(-c3cccc(C(F)(F)F)c3)cs2)nc1-c1ccccc1` [Cmpd 10]: testing at 50 µM in experiment [1] gave an inhibition of 25%. In addition, the “% Inhibition Fibrinogen Binding @ 30 μM” value in experiment [2] is recorded as 15%.

For `O=C(NCCCN1CCCC1=O)c1cnc(Nc2nc(-c3cccc(C(F)(F)F)c3)cs2)nc1C(F)(F)F` [Cmpd 11], the inhibition at 50 µM in experiment [1] stood at 25%. Also, in experiment [2], the “% Inhibition Fibrinogen Binding @ 30 μM” value was 10%.

In experiment [1], `CN1CCN(CCCNC(=O)c2cnc(Nc3nc(-c4cccc(C(F)(F)F)c4)cs3)nc2C(F)(F)F)CC1` [Cmpd 12] registered an inhibition at 50 µM of 90%. The “% Inhibition Fibrinogen Binding @ 30 μM” value in experiment [2] amounted to 47%.

`O=C(NCCCN1CCCCC1)c1cnc(Nc2nc(-c3cccc(Cl)c3)cs2)nc1C(F)(F)F` [Cmpd 13] had an inhibition at 50 µM in experiment [1] of 94%. The “% Inhibition Fibrinogen Binding @ 30 μM” value in experiment [2] stood at 16%.

In experiment [1], `O=C(NCCCN1CCCCCC1)c1cnc(Nc2nc(-c3cccc(Cl)c3)cs2)nc1C(F)(F)F` [Cmpd 14] displayed an inhibition at 50 µM of 98%. For the same compound, in experiment [2], the “% Inhibition Fibrinogen Binding @ 30 μM” value stood at 15%.

Turning to `O=C(NCCCNC1CCCCC1)c1cnc(Nc2nc(-c3cccc(Cl)c3)cs2)nc1C(F)(F)F` [Cmpd 15], in experiment [1], the IC50 stood at 14.8 µM. Further, the “% Inhibition Fibrinogen Binding @ 30 μM” value in experiment [2] stood at 73%.

Regarding `CCCNCCCNC(=O)c1cnc(Nc2nc(-c3cccc(Cl)c3)cs2)nc1C(F)(F)F` [Cmpd 16], the inhibition at 50 µM in experiment [1] came out at 96%. The “% Inhibition Fibrinogen Binding @ 30 μM” value in experiment [2] came to 20%.

As for `CCCCNCCCNC(=O)c1cnc(Nc2nc(-c3ccc(C)cc3)cs2)nc1C(F)(F)F` [Cmpd 17], at 50 µM the inhibition in experiment [1] was 36%. The “% Inhibition Fibrinogen Binding @ 30 μM” value in experiment [2] is on record as 43%.

On to `Cc1sc(Nc2ncc(C(=O)NCCCNC3CCCCC3)c(C(F)(F)F)n2)nc1-c1ccccc1` [Cmpd 18], for which the inhibition at 50 µM in experiment [1] is 58%. In experiment [2], the “% Inhibition Fibrinogen Binding @ 30 μM” value was determined as 47%.

For orientation: inhibition means the relative decrease from the control value, in per cent. Read a high inhibition as strong suppression.
